# Results published in ChEMBL document CHEMBL1154875, “Pharmacophoric model building for antitubercular activity of the individual Schiff bases of small combinatorial library” (2010).
# System: Mycobacterium tuberculosis
# Assay: Antimicrobial activity against Mycobacterium tuberculosis H37Rv ATCC 27294 at 6.25 ug/ml after 24 hrs by Microplate Almar blue assay
# Assay type: functional
# Conditions: H37Rv ATCC 27294, 24 h
row,SMILES,inhibition at 6.25 µg/mL
1,C/C(=N\NC(=O)c1ccncc1)c1ccc([N+](=O)[O-])cc1,99%
2,CC(=O)OC(O/C(C)=N/NC(=O)c1ccco1)c1ccc([N+](=O)[O-])o1 (centres undefined),99%
3,C/C(=N/NC(=O)c1cc(/C=C\c2ccco2)on1)c1ccc([N+](=O)[O-])cc1,66%
4,O=C1Nc2ccccc2/C1=N\NC(=O)c1cc(/C=C\c2ccco2)on1,39%
5,O=C1Nc2ccccc2/C1=N\NC(=O)c1cccnc1,57%
6,O=C(NN/C=C/c1ccccc1)c1ccncc1,54%
7,O=C(N/N=C/c1ccccc1)c1ccncc1 [N'-BENZYLIDENE ISONICOTINOHYDRAZIDE],51%
8,O=C1Nc2ccccc2/C1=N\NC(=O)c1ccco1,41%
9,CC(=O)OC(O/C(C)=N/NC(=O)c1ccncc1)c1ccc([N+](=O)[O-])o1 (centres undefined),84%
10,O=C(N/N=C/c1ccc([N+](=O)[O-])cc1)c1cc(/C=C\c2ccco2)on1,37%
11,C/C(=N/NC(=O)c1ccco1)c1ccc([N+](=O)[O-])cc1,62%
12,O=C(NN/C=C/c1ccccc1)c1cc(/C=C\c2ccco2)on1,80%
13,O=C(N/N=C/c1ccc([N+](=O)[O-])cc1)c1ccco1,35%
14,CC(=O)OC(O/C(C)=N/NC(=O)c1cc(/C=C\c2ccco2)on1)c1ccc([N+](=O)[O-])o1 (centres undefined),59%
